One experiment concerns the target T1, recombinant human NAMPT (Homo sapiens, UniProt P43490).
T1 construct: purchased Abcam ab198090
Description: NAMPT inhibition (fluorometric NMN detection). The experiment is classed as biochemical. The following applies: NI = No inhibition at concentration < 1 mM, SD < 20%.

In experiment [1] the test system is MiaPaCa-2 cells. Description: Measurement of intracellular NAD+ levels (cycling enzymatic assay). The experiment is classed as cell-based, human. The following applies: 24 h, 100 μM of inhibitor, SD < 20%.
Experiment [2] deals with MiaPaCa-2 cells. Description: Cell viability assay (SRB). The conditions noted are these: Homo sapiens, MIA PaCa-2, MiaPaCa-2, 72 h. The experiment is classed as cell-based. As for the experimental part: Cell viability assay. MiaPaCa-2 cells (2 × 10^3/well) were plated in 96−well plates and left to adhere overnight. After 24 h the cells were treated with the inhibitors. Viability was determined after 72 h. The culture plates were fixed with cold 3% trichloroacetic acid at 4 °C for 30 min, washed with cold water and dried overnight. Finally, the plates were stained with 0.4% sulforodhamine B (SRB) in 1% acetic acid, washed four times with 1% acetic acid to remove unbound dye, dried overnight and then the stain was extracted with 10 mM Tris Base and the absorbance was read at 560 nm.
Then, the new compounds were tested in vitro for their anti-proliferative effect, using the human pancreatic cancer cell line MiaPaca-2 in the cytotoxicity assays (Table 1).

In experiment [3] the test system is MiaPaCa-2 cells. Description: Measurement of intracellular NAD+ levels (cycling enzymatic assay). The class given is cell-based, human. On the set-up: dose or concentration left out as unconfirmed. The conditions noted are these: after 24 h. As for the experimental part:
Measurement of intracellular NAD^+ levels. MiaPaCa-2 cells were plated at a density of 6.5 × 10^4 cells/well in 12−well plates. After 24 h, cells were treated (or not) with the different compounds and cultured for a further 24 h. Cells were harvested and lysed in 0.1 mL 0.6 M perchloric acid. Intracellular NAD^+ levels were determined with a cycling enzymatic assay, as previously reported.
In order to confirm that the above-mentioned anti-proliferative effect of the new NAMPT inhibitors were associated with NAD^+ depletion, we evaluated the intracellular NAD^+ concentration (iNAD^+) in MiaPaCa-2 cells for all the compounds (at a fixed […] concentration). After 24 h, only the iminosugar-based inhibitors 22 (77%) and 29 (79%), as well as the non-carbohydrate analogue 42 (61%), led to significant depletion; the other compounds exerted an effect in the 0–10% range.

Setting [4] is: NI (footnote 3) = No inhibition at concentration < 400 μM, SD < 20%.

Molecules are shown by their SMILES.

T1 sequence (P43490 whole entry): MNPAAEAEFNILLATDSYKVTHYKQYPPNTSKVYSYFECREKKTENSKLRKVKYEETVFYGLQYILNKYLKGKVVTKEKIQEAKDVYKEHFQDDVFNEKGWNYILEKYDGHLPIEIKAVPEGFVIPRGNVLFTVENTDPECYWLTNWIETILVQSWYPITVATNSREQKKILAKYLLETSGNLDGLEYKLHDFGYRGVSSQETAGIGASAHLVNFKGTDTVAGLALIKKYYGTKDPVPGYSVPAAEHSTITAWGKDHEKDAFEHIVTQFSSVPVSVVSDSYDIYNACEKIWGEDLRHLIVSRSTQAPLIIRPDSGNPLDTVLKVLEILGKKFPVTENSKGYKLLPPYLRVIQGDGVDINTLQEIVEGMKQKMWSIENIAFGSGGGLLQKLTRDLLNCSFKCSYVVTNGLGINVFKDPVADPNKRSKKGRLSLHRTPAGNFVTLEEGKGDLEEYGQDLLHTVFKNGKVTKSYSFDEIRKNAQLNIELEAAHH

Regarding `CC(C)(C)c1ccc(S(=O)(=O)NCc2ccc(C(=O)Nc3ccc([C@@H]4N[C@H](CO)[C@@H](O)[C@H]4O)cc3)cc2)cc1` [Compound 24], the results for the IC50 on recombinant human NAMPT and with MiaPaCa-2 cells [2] (setting [4]) were 549 µM and more than 400 µM, respectively. Further, the “iNAD+ Depletion (%)” value in the experiment with MiaPaCa-2 cells [1] came out at 9%.

For the compound `O=C(NCc1ccc(C(=O)Nc2ccc([C@@H]3N[C@H](CO)[C@@H](O)[C@H]3O)cc2)cc1)c1ccccc1` [Compound 25], the half-maximal inhibitory concentration (IC50) at recombinant human NAMPT is more than 1000 µM; in the experiment on MiaPaCa-2 cells [2] (setting [4]), more than 400 µM. Also, the “iNAD+ Depletion (%)” value in the experiment with MiaPaCa-2 cells [1] is on record as 0%.

Turning to `CC(C)(C)c1ccc(S(=O)(=O)NCc2ccc(C(=O)Nc3ccccc3)cc2)cc1` [Compound 42], the IC50 on recombinant human NAMPT is 43 µM; in the experiment on MiaPaCa-2 cells [2] (setting [4]), more than 400 µM. Further, the “iNAD+ Depletion (%)” value in the experiment with MiaPaCa-2 cells [1] stood at 61%. The “intracellular NAD+ depletion” value in the experiment on MiaPaCa-2 cells [3] was 61%.

`CC(C)(C)c1ccc(S(=O)(=O)N2CCC(CCCC(=O)Nc3ccc([C@@H]4N[C@H](CO)[C@@H](O)[C@H]4O)cc3)CC2)cc1` [Compound 21]: the half-maximal inhibitory concentration (IC50) was more than 1000 µM on recombinant human NAMPT and more than 400 µM with MiaPaCa-2 cells [2] (NI (footnote 2) = No inhibition at concentration < 100 μM). Besides, in the experiment on MiaPaCa-2 cells [1], the “iNAD+ Depletion (%)” value was determined as 0%.

As to `COC[C@H]1N[C@@H](c2ccc(NC(=O)c3ccc(CNC(=O)c4ccccc4)cc3)cc2)[C@H](OC)[C@@H]1OC` [Compound 30], the 50% inhibitory concentration (IC50) on recombinant human NAMPT was more than 1000 µM; in the experiment with MiaPaCa-2 cells [2] (setting [4]), 920 µM. For the same compound, the “iNAD+ Depletion (%)” value with MiaPaCa-2 cells [1] is listed as 0%.

Take `COC[C@H]1N[C@@H](c2ccc(NC(=O)CCCC3CCN(C(=O)c4ccccc4)CC3)cc2)[C@H](OC)[C@@H]1OC` [Compound 27]: the IC50 on recombinant human NAMPT was more than 1000 µM; in the experiment on MiaPaCa-2 cells [2] (setting [4]), 539 µM. Moreover, the “iNAD+ Depletion (%)” value with MiaPaCa-2 cells [1] is on record as 0%.

As to `O=C(/C=C/c1cccnc1)NCCCCC1CCN(C(=O)c2ccccc2)CC1` [FK866, reference compound], the “iNAD+ Depletion (%)” value with MiaPaCa-2 cells [1] is 90%. The compound also had a half-inhibitory concentration (IC50) with MiaPaCa-2 cells [2] (setting [4]) of 0.0024 µM.

Regarding `COC[C@H]1N[C@@H](c2ccc(NC(=O)CCCC3CCN(S(=O)(=O)c4ccc(C(C)(C)C)cc4)CC3)cc2)[C@H](OC)[C@@H]1OC` [Compound 26], the concentration for half-maximal inhibition (IC50) on recombinant human NAMPT amounted to 139 µM; in the experiment on MiaPaCa-2 cells [2] (setting [4]), 37 µM. Moreover, the “iNAD+ Depletion (%)” value in the experiment on MiaPaCa-2 cells [1] is listed as 10%.

`O=C(CCCCCNC(=O)c1ccccc1)Nc1ccccc1` [Compound 38]: the IC50 on recombinant human NAMPT was found to be 113 µM; in the experiment on MiaPaCa-2 cells [2] (setting [4]), 340 µM. For the same compound, in the experiment with MiaPaCa-2 cells [1], the “iNAD+ Depletion (%)” value is listed as 0%.

With `O=C(CCCC1CCN(C(=O)c2ccccc2)CC1)Nc1ccccc1` [Compound 35], the 50% inhibitory concentration (IC50) was more than 1000 µM at recombinant human NAMPT and 91.4 µM with MiaPaCa-2 cells [2] (setting [4]). Moreover, the “iNAD+ Depletion (%)” value in the experiment on MiaPaCa-2 cells [1] is 4%.

On to `CC(C)(C)c1ccc(S(=O)(=O)N2CCC(CCCC(=O)Nc3ccccc3)CC2)cc1` [Compound 34], for which the half-maximal inhibitory concentration (IC50) at recombinant human NAMPT amounted to 357 µM; in the experiment on MiaPaCa-2 cells [2] (setting [4]) it was 46.6 µM. Moreover, the “iNAD+ Depletion (%)” value in the experiment with MiaPaCa-2 cells [1] was 6%.

On to `O=C(CCCC1CCN(C(=O)c2ccccc2)CC1)Nc1ccc([C@@H]2N[C@H](CO)[C@@H](O)[C@H]2O)cc1` [Compound 22], for which the results for the IC50 at recombinant human NAMPT and in the experiment on MiaPaCa-2 cells [2] (setting [4]) were 99.5 µM and 108 µM, respectively. The “iNAD+ Depletion (%)” value with MiaPaCa-2 cells [1] is 77%. The “intracellular NAD+ depletion” value in the experiment with MiaPaCa-2 cells [3] was determined as 77%.

Take `COC[C@H]1N[C@@H](c2ccc(NC(=O)CCCCCNC(=O)c3ccccc3)cc2)[C@H](OC)[C@@H]1OC` [Compound 28]: the 50% inhibitory concentration (IC50) at recombinant human NAMPT is 603 µM; in the experiment on MiaPaCa-2 cells [2] (setting [4]), more than 400 µM. Besides, in the experiment with MiaPaCa-2 cells [1], the “iNAD+ Depletion (%)” value stood at 3%.

Turning to `O=C(CCCCCNC(=O)c1ccccc1)Nc1ccc([C@@H]2N[C@H](CO)[C@@H](O)[C@H]2O)cc1` [Compound 23], the IC50 at recombinant human NAMPT is 363 µM; in the experiment on MiaPaCa-2 cells [2] (setting [4]) it was more than 400 µM. Besides, the “iNAD+ Depletion (%)” value in the experiment with MiaPaCa-2 cells [1] came to 5%.

For `COC[C@H]1N[C@@H](c2ccc(NC(=O)c3ccc(CNS(=O)(=O)c4ccc(C(C)(C)C)cc4)cc3)cc2)[C@H](OC)[C@@H]1OC` [Compound 29], the concentration for half-maximal inhibition (IC50) at recombinant human NAMPT was found to be 63 µM; with MiaPaCa-2 cells [2] (setting [4]), 32 µM. Besides, the “iNAD+ Depletion (%)” value in the experiment with MiaPaCa-2 cells [1] stood at 79%. The “intracellular NAD+ depletion” value with MiaPaCa-2 cells [3] is 79%.

Regarding `O=C(NCc1ccc(C(=O)Nc2ccccc2)cc1)c1ccccc1` [Compound 43], the half-inhibitory concentration (IC50) is 283 µM on recombinant human NAMPT and 698 µM with MiaPaCa-2 cells [2] (setting [4]). Besides, the “iNAD+ Depletion (%)” value in the experiment on MiaPaCa-2 cells [1] was determined as 1%.

The values above are taken from publication PMC10222582, “Iminosugar-Based Nicotinamide Phosphoribosyltransferase (NAMPT) Inhibitors as Potential Anti-Pancreatic Cancer Agents” (Pharmaceutics, 2023).
